This note sets out measurements from article PMC9848473 (Science Advances, 2023).

pKd: −log10 of the molar value.

One assay concerns the target DarB (Bacillus subtilis, UniProt O31698). Nature of the assay: biochemical.
Assay [1] concerns the target T1, RelBs^NTD2:DarB2 complex (DarB:RelBs^NTD) (Bacillus subtilis, UniProt O54408).
T1 construct: gene relA; heterotetramer of Rel residues 1 to 373 with full-length DarB, His10-SUMO tags cleaved, complex purified by size exclusion chromatography; with CBS domain-containing protein YkuL
Description: isothermal titration calorimetry. The assay is classed as binding.

In assay [2] the target is T1, RelBs^NTD2:DarB2 complex (DarB:RelBs^NTD). Description: stopped-flow FRET, Kd = koff/kon. Format: binding. To be noted: read-out: Kd^MANT-ATP.
Another assay deals with T2, RelBs^NTD (Bacillus subtilis, UniProt O54408).
T2 construct: gene relA; N-terminal domain region, residues 1 to 373 (HD, SYNTH and core domains), His10-SUMO tag cleaved with Ulp1, from E. coli BL21(DE3)
T2 sequence (O54408 1-373): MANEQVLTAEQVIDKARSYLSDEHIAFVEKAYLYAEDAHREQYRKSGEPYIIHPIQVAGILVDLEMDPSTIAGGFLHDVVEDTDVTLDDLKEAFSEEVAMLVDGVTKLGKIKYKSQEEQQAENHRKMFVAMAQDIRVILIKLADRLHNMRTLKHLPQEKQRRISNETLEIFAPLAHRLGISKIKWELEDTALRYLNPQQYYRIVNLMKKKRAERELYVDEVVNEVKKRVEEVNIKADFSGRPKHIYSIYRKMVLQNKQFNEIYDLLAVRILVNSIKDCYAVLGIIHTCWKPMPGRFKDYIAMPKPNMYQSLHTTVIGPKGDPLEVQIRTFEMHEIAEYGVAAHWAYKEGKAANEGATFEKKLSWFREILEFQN
Nature of the assay: isothermal titration calorimetry. To be noted: 25°C; pH 7.5; 10 mM MgCl2. Format: binding. (In general: Isothermal titration calorimetry measures the heat released or taken up as one component is titrated into another.)

T1 sequence (O54408 1-373): as above
T1 sequence (O31698 whole entry, further chain, the tested form may be a part): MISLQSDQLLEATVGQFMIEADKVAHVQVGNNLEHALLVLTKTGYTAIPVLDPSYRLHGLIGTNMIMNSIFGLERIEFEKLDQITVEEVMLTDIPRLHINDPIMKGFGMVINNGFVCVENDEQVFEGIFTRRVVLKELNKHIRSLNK
DarB, sequence (O31698 whole entry): as the sequence (O31698 whole entry, further chain, the tested form may be a part) above

Turning to `Nc1ncnc2c1ncn2[C@@H]1O[C@@H]2COP(=O)(O)O[C@H]3[C@@H](O)[C@H](n4cnc5c(N)ncnc54)O[C@@H]3COP(=O)(O)O[C@H]2[C@H]1O` [c-di-AMP], the pKd (usually −log10 of the Kd, conventionally taken in molar units) at DarB is 7.34.
Turning to `Nc1nc2c(ncn2[C@@H]2O[C@H](COP(=O)(O)OP(=O)(O)OP(=O)(O)O)[C@@H](OP(=O)(O)OP(=O)(O)O)[C@H]2O)c(=O)[nH]1` [pppGpp], the pKd in assay [1] (read-out: Kd) was 5.09.
In the case of `CNc1ccccc1C(=O)O[C@H]1[C@@H](O)[C@H](n2cnc3c(N)ncnc32)O[C@@H]1CO[P@@](=O)(O)O[P@](=O)(O)OP(=O)(O)O` (mixture of isomers) [MANT-ATP], the negative-log Kd (pKd) in assay [2] was 3.51.
For `Nc1ncnc2c1ncn2[C@@H]1O[C@H](COP(=O)(O)CP(=O)(O)OP(=O)(O)O)[C@@H](O)[C@H]1O` [APCPP, adenosine-5′-[(α,β)-methyleno]triphosphate], the isothermal titration calorimetry entry at RelBs^NTD is “RelBs^NTD alone has low affinity to APCPP (Fig. 5G)”. Further, the pKd in assay [1] (read-out: Kd^APCPP) is 3.94.
